From patent EP3262942A1, “SELENODIARYLS FOR USE AS MICROBICIDE OR AS MEDICINE” (Evonik Degussa GmbH, priority 2016, dated 2018)

Experiments:
[1] = test system: P. infestans; assay: microbe, parasite or virus in culture; type: cell-based, Phytophthora infestans; details: for inhibition of growth at 5 µg/mL / inhibition of growth at 10 µg/mL / inhibition of growth at 25 µg/mL / inhibition of growth at 50 µg/mL: Phytophthora infestans, 24 h, read-out: Aktivität gegenüber P. infestans
[2] = test system: Candida albicans; assay: Growth test in microtiter plates, HA medium, 24 h, visual evaluation; type: cell-based; set-up: key: +: kein Wachstum im Vergleich zur Wachstumskontrolle; -: Wachstum wie Wachstumskontrolle
[3] = test system: M. grisea CM; assay: microbe, parasite or virus in culture; type: cell-based, Magnaporthe grisea; details: Pyricularia grisea, 24 h, read-out: Aktivität gegenüber M. grisea CM
[4] = test system: M. grisea H2O; assay: microbe, parasite or virus in culture; type: cell-based, Magnaporthe grisea; details: Pyricularia grisea, H2O, 24 h, read-out: Aktivität gegenüber M. grisea H2O
[5] = test system: Botrytis cinerea; assay: microbe, parasite or virus in culture; type: cell-based; details: for inhibition of growth at 5 µg/mL / inhibition of growth at 10 µg/mL / inhibition of growth at 25 µg/mL / inhibition of growth at 50 µg/mL: Botrytis cinerea, 24 h, read-out: Aktivität gegenüber B. cinerea
[6] = test system: Mucor miehei; assay: Growth test in microtiter plates, HA medium, 24 h, visual evaluation; type: cell-based; set-up: key to Aktivität gegenüber M. miehei: +: kein Wachstum im Vergleich zur Wachstumskontrolle; -: Wachstum wie Wachstumskontrolle
[7] = test system: Lepidium sativum; assay: Crop plant growth test, seeds on filter discs, 4 days, visual evaluation; type: in vivo
Method: (§1) Testsubstanzen und Kontrollen werden auf Filterrondellen in Mikrotiterplatten (48 well) vorgelegt und das verwendete Lösungsmittel (DMSO) über Lyophilisation entfernt. Anschließend werden ca. 12 Samen pro Vertiefung (Setaria italical Lepidium sativum) zugeben, mit 200 µl sterilem Leitungswasser pro Vertiefung versetzt, mit einem Deckel versehen und in einer feuchten Kammer für 4 Tage im Pflanzenbrutschrank inkubiert (16h-Licht-8h-Dunkel-Rhythmus). Die Auswertung des Tests erfolgt optisch (+: mind. 75 % Wachstumshemmung im Vergleich zur Kontrolle, -: weniger als 75 % Wachstumshemmung im Vergleich zur Kontrolle.

[8] = test system: Setaria italica; assay: as above; type: in vivo
Method: as §1

[9] = test system: Penicillium notatum; assay: Growth test in microtiter plates, HA medium, 24 h, visual evaluation; type: cell-based; set-up: key: +: kein Wachstum im Vergleich zur Wachstumskontrolle; -: Wachstum wie Wachstumskontrolle
[10] = test system: Paecilomyces variotii; assay: as above; type: cell-based; set-up: key: +: kein Wachstum im Vergleich zur Wachstumskontrolle; -: Wachstum wie Wachstumskontrolle

Structure (SMILES) | inhibition of growth at 5 µg/mL [1] | inhibition of growth at 10 µg/mL [1] | inhibition of growth at 25 µg/mL [1] | inhibition of growth at 50 µg/mL [1] | Aktivität gegenüber C. albicans ([2]; 10µg/mL) | Aktivität gegenüber C. albicans ([2]; 50µg/mL) | inhibition of growth at 5 µg/mL [3] | inhibition of growth at 10 µg/mL [3] | inhibition of growth at 25 µg/mL [3] | inhibition of growth at 50 µg/mL [3] | inhibition of growth at 5 µg/mL [4] | inhibition of growth at 10 µg/mL [4] | inhibition of growth at 25 µg/mL [4] | inhibition of growth at 50 µg/mL [4] | inhibition of growth at 5 µg/mL [5] | inhibition of growth at 10 µg/mL [5] | inhibition of growth at 25 µg/mL [5] | inhibition of growth at 50 µg/mL [5] | Aktivität gegenüber M. miehei ([6]; 10µg/mL) | Aktivität gegenüber M. miehei ([6]; 50µg/mL) | also measured
Cc1cc(C)c(O)c([Se]c2c(C)c(C)cc(C)c2O)c1C [Verbindung 17, Bis(2-hydroxy-3,5,6-trimethylphenyl)selen] | 0 to 25% | 25 to 50% | 25 to 50% | 25 to 50% | - | - | 0 to 25% | 0 to 25% | 50 to 75% | 50 to 75% | 0 to 25% | 0 to 25% | 0 to 25% | 0 to 25% | 0 to 25% | 0 to 25% | 0 to 25% | 0 to 25% | - | - | Aktivität gegenüber Nutzpflanzen: L. sativum ([7]; 10µg/R): - (weniger als 75 % Wachstumshemmung im Vergleich zur Kontrolle); Aktivität gegenüber Nutzpflanzen: L. sativum ([7]; 20µg/R): - (weniger als 75 % Wachstumshemmung im Vergleich zur Kontrolle); Aktivität gegenüber Nutzpflanzen: L. sativum ([7]; 50µg/R): - (weniger als 75 % Wachstumshemmung im Vergleich zur Kontrolle); Aktivität gegenüber Nutzpflanzen: S. italica ([8]; 10µg/R): - (weniger als 75 % Wachstumshemmung im Vergleich zur Kontrolle); Aktivität gegenüber Nutzpflanzen: S. italica ([8]; 20µg/R): - (weniger als 75 % Wachstumshemmung im Vergleich zur Kontrolle); Aktivität gegenüber Nutzpflanzen: S. italica ([8]; 50µg/R): + (mind. 75 % Wachstumshemmung im Vergleich zur Kontrolle); Aktivität gegenüber P. notatum ([9]; 10µg/mL): -; Aktivität gegenüber P. notatum ([9]; 50µg/mL): -; Aktivität gegenüber P. variotii ([10]; 10µg/mL): -; Aktivität gegenüber P. variotii ([10]; 50µg/mL): -
Cc1c(Cl)cc(C(C)C)c(O)c1[Se]c1c(C)c(Cl)cc(C(C)C)c1O [Verbindung 21, Bis(3-chlor-6-hydroxy-5-isopropyl-2-methylphenyl)selen] | 0 to 25% | 0 to 25% | 0 to 25% | 0 to 25% | - | - | 50 to 75% | > 75% | > 75% | > 75% | 25 to 50% | > 75% | > 75% | > 75% | 0 to 25% | 0 to 25% | 0 to 25% | 0 to 25% | - | - | Wirksamkeit gegenüber P. infestans [1]: keine Wirkung; Aktivität gegenüber Nutzpflanzen: L. sativum ([7]; 10µg/R): - (weniger als 75 % Wachstumshemmung im Vergleich zur Kontrolle); Aktivität gegenüber Nutzpflanzen: L. sativum ([7]; 20µg/R): - (weniger als 75 % Wachstumshemmung im Vergleich zur Kontrolle); Aktivität gegenüber Nutzpflanzen: L. sativum ([7]; 50µg/R): - (weniger als 75 % Wachstumshemmung im Vergleich zur Kontrolle); Aktivität gegenüber Nutzpflanzen: S. italica ([8]; 10µg/R): - (weniger als 75 % Wachstumshemmung im Vergleich zur Kontrolle); Aktivität gegenüber Nutzpflanzen: S. italica ([8]; 20µg/R): - (weniger als 75 % Wachstumshemmung im Vergleich zur Kontrolle); Aktivität gegenüber Nutzpflanzen: S. italica ([8]; 50µg/R): - (weniger als 75 % Wachstumshemmung im Vergleich zur Kontrolle); Aktivität gegenüber P. notatum ([9]; 10µg/mL): -; Aktivität gegenüber P. notatum ([9]; 50µg/mL): -; Aktivität gegenüber P. variotii ([10]; 10µg/mL): -; Aktivität gegenüber P. variotii ([10]; 50µg/mL): -
Cc1cc(Cl)cc([Se]c2cc(Cl)cc(C)c2O)c1O [Verbindung 22, Bis(3-chlor-6-hydroxy-5-methylphenyl)selen] | 0 to 25% | > 75% | > 75% | > 75% | - | - | > 75% | > 75% | > 75% | > 75% | > 75% | > 75% | > 75% | > 75% | > 75% | > 75% | > 75% | > 75% | - | - | mikrobizide Wirksamkeit gegenüber B. cinerea [5]: mikrobizide Wirksamkeit; Aktivität gegenüber Nutzpflanzen: L. sativum ([7]; 10µg/R): - (weniger als 75 % Wachstumshemmung im Vergleich zur Kontrolle); Aktivität gegenüber Nutzpflanzen: L. sativum ([7]; 20µg/R): - (weniger als 75 % Wachstumshemmung im Vergleich zur Kontrolle); Aktivität gegenüber Nutzpflanzen: L. sativum ([7]; 50µg/R): - (weniger als 75 % Wachstumshemmung im Vergleich zur Kontrolle); Aktivität gegenüber Nutzpflanzen: S. italica ([8]; 10µg/R): - (weniger als 75 % Wachstumshemmung im Vergleich zur Kontrolle); Aktivität gegenüber Nutzpflanzen: S. italica ([8]; 20µg/R): - (weniger als 75 % Wachstumshemmung im Vergleich zur Kontrolle); Aktivität gegenüber Nutzpflanzen: S. italica ([8]; 50µg/R): - (weniger als 75 % Wachstumshemmung im Vergleich zur Kontrolle); Aktivität gegenüber P. notatum ([9]; 10µg/mL): -; Aktivität gegenüber P. notatum ([9]; 50µg/mL): -; Aktivität gegenüber P. variotii ([10]; 10µg/mL): -; Aktivität gegenüber P. variotii ([10]; 50µg/mL): -
Cc1cc(Br)c(O)c([Se]c2cc(C)cc(Br)c2O)c1 [Verbindung 23, Bis(3-brom-2-hydroxy-5-methylphenyl)selen] | 0 to 25% | 0 to 25% | 0 to 25% | 0 to 25% | - | - | > 75% | > 75% | > 75% | > 75% | 0 to 25% | 25 to 50% | > 75% | > 75% | 0 to 25% | 0 to 25% | 0 to 25% | 0 to 25% | - | - | Wirksamkeit gegenüber P. infestans [1]: keine Wirkung; Aktivität gegenüber Nutzpflanzen: L. sativum ([7]; 10µg/R): - (weniger als 75 % Wachstumshemmung im Vergleich zur Kontrolle); Aktivität gegenüber Nutzpflanzen: L. sativum ([7]; 20µg/R): - (weniger als 75 % Wachstumshemmung im Vergleich zur Kontrolle); Aktivität gegenüber Nutzpflanzen: L. sativum ([7]; 50µg/R): - (weniger als 75 % Wachstumshemmung im Vergleich zur Kontrolle); Aktivität gegenüber Nutzpflanzen: S. italica ([8]; 10µg/R): - (weniger als 75 % Wachstumshemmung im Vergleich zur Kontrolle); Aktivität gegenüber Nutzpflanzen: S. italica ([8]; 20µg/R): - (weniger als 75 % Wachstumshemmung im Vergleich zur Kontrolle); Aktivität gegenüber Nutzpflanzen: S. italica ([8]; 50µg/R): - (weniger als 75 % Wachstumshemmung im Vergleich zur Kontrolle); Aktivität gegenüber P. notatum ([9]; 10µg/mL): -; Aktivität gegenüber P. notatum ([9]; 50µg/mL): -; Aktivität gegenüber P. variotii ([10]; 10µg/mL): -; Aktivität gegenüber P. variotii ([10]; 50µg/mL): -
